Data on 22 compounds can be found in article PMC6269915, “Design, Synthesis and Evaluation of 3-(2-Aminoheterocycle)-4-benzyloxyphenylbenzamide Derivatives as BACE-1 Inhibitors” (Molecules, 2013).

Each structure is given as a SMILES string. Entries after “also recorded” stand apart in the source; their conditions may differ. Structures can show the parent of a compound that is named as a salt. Where two headings read alike, the source gives them in different places.

The target of series [1] is T1, BACE-1 (Homo sapiens, UniProt P56817).
T1 construct: host or cells: insect cells
T1 sequence (P56817 46-501): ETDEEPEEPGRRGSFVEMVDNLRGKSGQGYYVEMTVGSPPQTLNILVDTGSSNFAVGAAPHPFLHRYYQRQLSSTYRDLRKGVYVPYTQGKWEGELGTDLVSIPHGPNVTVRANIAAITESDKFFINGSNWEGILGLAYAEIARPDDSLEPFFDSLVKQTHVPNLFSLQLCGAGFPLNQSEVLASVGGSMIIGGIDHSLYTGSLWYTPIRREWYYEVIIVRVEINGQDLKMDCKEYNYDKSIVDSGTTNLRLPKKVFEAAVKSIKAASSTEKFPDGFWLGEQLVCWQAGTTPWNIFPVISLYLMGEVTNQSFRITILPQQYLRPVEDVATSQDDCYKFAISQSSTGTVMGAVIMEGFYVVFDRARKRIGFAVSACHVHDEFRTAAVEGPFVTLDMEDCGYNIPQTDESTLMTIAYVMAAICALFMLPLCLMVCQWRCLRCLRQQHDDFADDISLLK
Put plainly: BACE-1 inhibition, fluorescence resonance energy transfer (FRET) assay. The conditions noted are these: BACE-1 FRET assay; for inhibition at 20 µg/mL: 20 μg/mL. The series is classed as biochemical. The procedure: The obtained target compounds were tested for their BACE-1 inhibitory activities using a fluorescence resonance energy transfer (FRET) assay, with OM99-2, a potent peptidomimetic inhibitor, as the positive control.
All synthesized compounds were tested for their BACE 1 inhibitor activities using a fluorescence resonance energy transfer (FRET) assay, which used purified insect-expressed BACE-1 and a specific substrate. An excitation wavelength of 355 nm and an emission wavelength of 460 nm were used to monitor the hydrolysis of substrate.

Details of series [2]: method as in PMID 19409780. The conditions noted are these: mice, 20 mg/kg iv, t = 30 min; cited from earlier work.
A short description of series [3]: Bidirectional transport across MDCK monolayer cells. The series is classed as in vitro ADME, canine. Particulars: dog. The protocol:
(§1) Blood-brain barrier (BBB) permeation is critical for any AD therapeutic drug.
(§2) Madin-Darby canine kidney cell line (MDCK) was obtained from Peking Union Medical College (Beijing, China). The MDR1-transfected MDCK-MDR1 cells were established in Prof. Su Zeng’s laboratory as follows: MDCK cells were seeded onto six-well plates with a seeding density of 1 × 10^5 cells/well and cultured for 48 h. pcDNA3.1(+)/MDR1 plasmid vector was transfected into MDCK cells using Lipofectamine ^TM 2000 reagent according to the manufacturer’s instructions. Cells were subcultured in DMEM containing 600 µg/mL G418 for 96 h, and then replaced by DMEM containing 800 μg/mL G418 for a further 24 h. Cells were transferred to culture bottle and incubated in DMEM supplemented with 600 μg/mL G418 for 20 days. 19 stable transfected monoclonals grown on 96-well plates were obtained after dilution screening. Cells were cultured in DMEM with 10% fetal bovine serum, and grown in a humidified atmosphere of 5% CO2 at 37 °C. A solution of 0.25% trypsin-EDTA was used to detach the cells from flasks.
MDCK and MDCK-MDR1 cells were washed twice and equilibrated at 37 °C for 30 min with pre-warmed transport buffer. Hanks’ balanced salted solution (HBSS) containing HEPES (25 mM, pH 7.4). The transport buffer containing drug passed through a 0.2 μm membrane filter for degerming. For the absorption study (Apical to Basolateral), 0.5 mL incubation medium containing drug was added to the apical side as a donor chamber, 1.5 mL fresh incubation medium was added to the basolateral side as a receiver chamber. For the secretion study (Basolateral to Apical), 1.5 mL incubation medium containing drug was added to the basolateral side as a donor chamber, 0.5 mL fresh incubation medium was added to the apical side as a receiver chamber. Transport studies were conducted at 37 °C in a humidiﬁed incubator with shaking (50 rpm) for 1 h, and then the collected samples were analyzed by HPLC. […]

The test system of the next series is P-gp (MDR1). Put plainly: Bidirectional transport across MDCK-MDR1 monolayer cells. The series is classed as in vitro ADME, canine. Particulars: dog. The procedure: as §1, §2
(§3) MDCK and MDCK-MDR1 cells were washed twice and equilibrated at 37 °C for 30 min with pre-warmed transport buffer. Hanks’ balanced salted solution (HBSS) containing HEPES (25 mM, pH 7.4). The transport buffer containing drug passed through a 0.2 μm membrane filter for degerming. For the absorption study (Apical to Basolateral), 0.5 mL incubation medium containing drug was added to the apical side as a donor chamber, 1.5 mL fresh incubation medium was added to the basolateral side as a receiver chamber. For the secretion study (Basolateral to Apical), 1.5 mL incubation medium containing drug was added to the basolateral side as a donor chamber, 0.5 mL fresh incubation medium was added to the apical side as a receiver chamber. Transport studies were conducted at 37 °C in a humidiﬁed incubator with shaking (50 rpm) for 1 h, and then the collected samples were analyzed by HPLC. Apparent permeability coefficients (Papp(A-B), Papp(B-A)) and efflux ratio (Pratio = (Papp(B-A)/Papp(A-B)) were used to evaluate the permeability and absorption profiles of compounds. P ratio is an important parameter to denote if a compound is a substrate of P-gp or not.

The test system of another series is MDCK-MDR1 cells. The series is described as above. Format: in vitro ADME, canine. The procedure:
as §1, §2, §3

The target in series [4] is T1, BACE-1. The conditions noted are these: cited from earlier work.
Details of series [5]: method as in PMID 17156133. Particulars: in words; cited from earlier work.
Where [6] appears, read: pH 7.4, 55.6 μM 5e, 1 h, mean ± SD, n = 3.
Where [7] appears, read: pH 7.4, MDCK-MDR1, 55.6 μM 5e, 1 h, mean ± SD, n = 3.

`Br.NC1=NN=C(c2cc(NC(=O)c3ccccc3)ccc2OCc2ccccc2)CS1` [5a, N-(3-(2-Amino-6H-1,3,4-thiadiazin-5-yl)-4-(benzyloxy)phenyl)benzamide hydrobromide] displayed a melting point of 246 to 247 °C. On BACE-1 [1], this compound had a 50% inhibitory concentration (IC50) of 16.7 µM and an inhibition at 20 µg/mL of 64.2 ± 0.5%.

As for `COc1ccc(C(=O)Nc2ccc(OCc3ccccc3)c(-c3coc(N)n3)c2)cc1` [4d, N-(3-(2-Aminooxazol-4-yl)-4-(benzyloxy)phenyl)-4-methoxybenzamide], on BACE-1 [1], the inhibition at 20 µg/mL is 34.4 ± 5.7%.

For the compound `Nc1nc(-c2cc(NC(=O)c3cccc4ccccc34)ccc2OCc2ccccc2)co1` [4e, N-(3-(2-Aminooxazol-4-yl)-4-(benzyloxy)phenyl)-1-naphthamide], the melting point is 195 to 197 °C. The inhibition at 20 µg/mL at BACE-1 [1] is 42.6 ± 3.2%.

The compound `Br.COc1ccc(C(=O)Nc2ccc(OCc3ccccc3)c(C3=NN=C(N)SC3)c2)cc1` [5d, N-(3-(2-Amino-6H-1,3,4-thiadiazin-5-yl)-4-(benzyloxy)phenyl)-4-methoxybenzamide hydrobromide] returned a melting point of 181 to 182 °C. Also, at BACE-1 [1], the IC50 was above 20 µM and the inhibition at 20 µg/mL turned out to be 84.9 ± 16.7%.

For `Nc1nc(-c2cc(NC(=O)c3ccc(Cl)cc3)ccc2OCc2ccccc2)cs1` [3b, N-(3-(2-Aminothiazol-4-yl)-4-(benzyloxy)phenyl)-4-chlorobenzamide], the inhibition at 20 µg/mL against BACE-1 [1] came out at 20.4 ± 4.4%.

At BACE-1 [1], `Nc1nc(-c2cc(NC(=O)c3ccccc3)ccc2OCc2ccccc2)cs1` [3a, N-(3-(2-Aminothiazol-4-yl)-4-(benzyloxy)phenyl)benzamide] yielded an inhibition at 20 µg/mL of 29.3 ± 1.3%.

In the case of `COc1ccc(C(=O)Nc2ccc(OCc3ccccc3)c(-c3csc(N)n3)c2)cc1` [3d, N-(3-(2-Aminothiazol-4-yl)-4-(benzyloxy)phenyl)-4-methoxybenzamide], the inhibition at 20 µg/mL against BACE-1 [1] came out at 29.5 ± 3.5%.

With `NC1=NC(c2ccccc2)(c2ccccc2)C2=NCCCN12` [compound 2], in series [2], the “[brain]” value was 15 µM.

The compound `Nc1nc(-c2cc(NC(=O)c3cccnc3)ccc2OCc2ccccc2)cs1` [3f, N-(3-(2-Aminothiazol-4-yl)-4-(benzyloxy)phenyl)nicotinamide] came in with a melting point of 212 to 213 °C. Also, on BACE-1 [1], the inhibition at 20 µg/mL came out at 36.8 ± 6.9%.

`Nc1nc(-c2cc(NC(=O)Cc3ccccc3)ccc2OCc2ccccc2)cs1` [3g, N-(3-(2-Aminothiazol-4-yl)-4-(benzyloxy)phenyl)-2-phenylacetamide]: the melting point is 190 to 193 °C. In addition, the inhibition at 20 µg/mL against BACE-1 [1] is 8.9 ± 7%.

`NC1=NN=C(c2cc(NC(=O)c3ccc(C(F)(F)F)cc3)ccc2OCc2ccccc2)CS1` (as salt: hydrobromid) [5c, N-(3-(2-Amino-6H-1,3,4-thiadiazin-5-yl)-4-(benzyloxy)phenyl)-4-(trifluoromethyl)-benzamide hydro-bromide] had a melting point of 222 to 225 °C.

On to `NC1=NN=C(c2cc(NC(=O)c3ccc(C(F)(F)F)cc3)ccc2OCc2ccccc2)CS1` [5c, N-(3-(2-Amino-6H-1,3,4-thiadiazin-5-yl)-4-(benzyloxy)phenyl)-4-(trifluoromethyl)-benzamide hydro-bromide], for which the inhibition at 20 µg/mL on BACE-1 [1] amounted to 46.9 ± 7.5%.

On to `Br.NC1=NN=C(c2cc(NC(=O)c3cccc4ccccc34)ccc2OCc2ccccc2)CS1` [5e, N-(3-(2-Amino-6H-1,3,4-thiadiazin-5-yl)-4-(benzyloxy)phenyl)-1-naphthamide hydrobromide], for which the melting point lay within 219 to 221 °C. In series [3] (setting [6]), the Papp A→B at 1 h, 55.6 μM is 28.2 ± 6.45 ×10⁻⁶ cm/s and the apparent permeability from basolateral to apical (Papp B→A) at 1 h, 55.6 μM stood at 27.7 ± 2.87 ×10⁻⁶ cm/s. The efflux ratio at 1 h, 55.6 μM in series [3] (pH 7.4, Papp(B-A)/Papp(A-B)) came to 0.98. On BACE-1 [1], this compound showed a half-inhibitory concentration (IC50) of 9.9 µM and an inhibition at 20 µg/mL of 60 ± 3.1%. For the same compound, the efflux ratio at 1 h, 55.6 μM with P-gp (MDR1) (MDCK-MDR1, pH 7.4, MDCK-MDR1, Papp(B-A)/Papp(A-B), read-out: Efflux ratio) is 0.7. In the series with P-gp (MDR1) (MDCK-MDR1, pH 7.4, MDCK-MDR1 versus MDCK, read-out: Net efflux ratio), the efflux ratio at 1 h, 55.6 μM was determined as 0.71. In the series on P-gp (MDR1) (setting [7]), this compound had a Papp A→B at 1 h, 55.6 μM of 31.8 ± 1.85 ×10⁻⁶ cm/s and a Papp B→A at 1 h, 55.6 μM of 22.2 ± 1.24 ×10⁻⁶ cm/s. Further, the “Blood-brain barrier permeability assessment” value in the series on MDCK-MDR1 cells (MDCK and MDCK-MDR1 model, in words) is “high brain uptake potential; also recorded: good penetration ability through the blood-brain barrier; also recorded: favorable blood-brain barrier permeability”. Also, the P-gp substrate assessment entry in the series on MDCK-MDR1 cells (net efflux ratio less than FDA's recommendation of 2) is reported as “not a P-gp substrate”.

Compound `Nc1nc(-c2cc(NC(=O)c3cccc4ccccc34)ccc2OCc2ccccc2)cs1` [3e, N-(3-(2-Aminothiazol-4-yl)-4-(benzyloxy)phenyl)-1-naphthamide] showed a melting point of 198 to 200 °C. At BACE-1 [1], the half-maximal inhibitory concentration (IC50) was above 20 µM and the inhibition at 20 µg/mL worked out at 55.3 ± 5.7%.

Compound `Nc1nc(-c2cc(NC(=O)c3ccccc3)ccc2OCc2ccccc2)co1` [4a, N-(3-(2-Aminooxazol-4-yl)-4-(benzyloxy)phenyl)benzamide] showed an inhibition at 20 µg/mL on BACE-1 [1] of 38.8 ± 0.3%.

In turn, `Br.NC1=NN=C(c2cc(NC(=O)c3ccc(Cl)cc3)ccc2OCc2ccccc2)CS1` [5b, N-(3-(2-Amino-6H-1,3,4-thiadiazin-5-yl)-4-(benzyloxy)phenyl)-4-chlorobenzamide hydrobromide] showed a melting point of 217 to 218 °C. At BACE-1 [1], this compound returned an IC50 above 20 µM and an inhibition at 20 µg/mL of 76 ± 2.5%.

Take `CCNc1cc(C(=O)N[C@@H](Cc2ccccc2)[C@H](O)CNCc2cccc(C(F)(F)F)c2)c(F)c(N2CCCCS2(=O)=O)c1` [GSK188909]: the IC50 on BACE-1 [4] was 0.005 µM. The blood-brain barrier permeability entry in series [5] is recorded as “poor blood-brain barrier permeability”.

Consider `Nc1nc(-c2cc(NC(=O)c3ccc(Cl)cc3)ccc2OCc2ccccc2)co1` [4b, N-(3-(2-Aminooxazol-4-yl)-4-(benzyloxy)phenyl)-4-chlorobenzamide], for which, at BACE-1 [1], the inhibition at 20 µg/mL came out at 49.9 ± 0.2%.

In the case of `Nc1nc(-c2cc(NC(=O)Cc3cccc4ccccc34)ccc2OCc2ccccc2)cs1` [3i, N-(3-(2-Aminothiazol-4-yl)-4-(benzyloxy)phenyl)-2-(naphthalen-1-yl)acetamide], the melting point is 246 to 247 °C. The same compound came in with an inhibition at 20 µg/mL against BACE-1 [1] of 11.3 ± 0.7%.

As to `Nc1nc(-c2cc(NC(=O)c3ccc(C(F)(F)F)cc3)ccc2OCc2ccccc2)cs1` [3c, N-(3-(2-Aminothiazol-4-yl)-4-(benzyloxy)phenyl)-4-(trifluoromethyl)benzamide], at BACE-1 [1], the inhibition at 20 µg/mL is 33 ± 1.9%.

For `Nc1nc(-c2cc(NC(=O)c3ccc(C(F)(F)F)cc3)ccc2OCc2ccccc2)co1` [4c, N-(3-(2-Aminooxazol-4-yl)-4-(benzyloxy)phenyl)-4-(trifluoromethyl)benzamide], the melting point was 225 to 227 °C. Moreover, on BACE-1 [1], 20 µg/mL produced 47.5 ± 9.9% inhibition.

The compound `Nc1nc(-c2cc(NC(=O)CCc3ccccc3)ccc2OCc2ccccc2)cs1` [3h, N-(3-(2-Aminothiazol-4-yl)-4-(benzyloxy)phenyl)-3-phenylpropanamide] returned a melting point of 192 to 193 °C. In addition, testing at 20 µg/mL against BACE-1 [1] gave an inhibition of 3.1 ± 2.5%.
